Reference: patent US11571397B2, “Compositions and methods for treating seizure-induced sudden death” (ZOGENIX INTERNATIONAL LIMITED, priority 2018, dated 2023)

Experiments:
Type in all cases: in vivo, mouse
DBA/1 mice [1] = assay: AGSz and S-IRA in DBA/1 mice, 8-hour testing protocol
Source text: (§1) The typical seizure semiology in the DBA/1 mice begins with a wild running phase, followed by clonic-tonic seizures and then tonic hind-limb extension that immediately leads to S-IRA during post-ictal behavioral depression (PID). The onset of S-IRA was visually determined by the occurrence of respiratory failure following loss of the righting reflex, relaxation of the pinnae, and then a generalized loss of muscle tone. These behaviors are reliable indicators of imminent sudden death in DBA mice. Resuscitation was initiated within 10 s after pinna relaxation and the generalized loss of muscle tone, which was effective in reversing S-IRA and reviving >90% of the mice. The mice were placed in a supine position, and a polyethylene tube (4.4 mm external diameter) connected to the outflow of a rodent respirator (Harvard Apparatus 680), pumping one cc of room air at 200 strokes/min, was the placed over the nostrils, which produced observable displacement of the chest. Respiratory support was provided until spontaneous breathing rhythm returned, which required ˜19 sec. The mice were monitored until they regained the righting reflex and then returned to their home cage. Video recordings of seizure behaviors and recovery were made for off-line evaluation and analysis, including the duration of PID, as indicated by time from muscle tone loss to return of the righting reflex.
The experiments herein disclosed examined the dose-response relationship of FFA (10-40 mg/kg, i.p.) on AGSz-induced behaviors in DBA/1 mice compared to vehicle (saline) treated control mice using different seizure-testing protocols. This initial protocol involved induction of AGSz at 30 min, 12 h and 24 h after drug administration, and subsequently at 24 h intervals until susceptibility to S-IRA returned. These studies were aimed at determining whether FFA can reduce the incidence (frequency) and severity of AGSz and susceptibility to S-IRA. […] To determine the effect of FFA on the severity of AGSz in DBA/1 mice, the ordinal scoring system of De Sarro and coworkers was used: no seizure=0; wild running=1; clonic seizure=2; tonic seizure=3; death/S-IRA=4. The median effective dose (ED50) for FFA for blocking AGSz at 30 min following the i.p. injection in DBA/1 mice was calculated using a second order polynomial equation (y=65.113x^2-2.0715x-63.578) that gave the best fit (R^2=0.9989).
The videos of seizure behaviors were analyzed visually, and the incidence (frequency) of AGSz, seizure severity, and incidence (frequency) of S-IRA following drug treatment were compared statistically to vehicle controls using the Chi-square, Mann-Whitney U or paired samples t-test with SPSS software. The ED50 was calculated using SigmaPlot 13 and Microsoft® Excel. The experimental protocols used in these studies were approved by the Laboratory Animal Care and Use Committee of Southern Illinois University School of Medicine, which are in accordance with National Institutes of Health guidelines for the care and use of laboratory animals. Measures to minimize animal usage as well as pain and discomfort were included in these procedures.
FIGS. 2A through 2D show a time-course of selective S-IRA blocking effect of FFA in DBA/1 mice (8 h testing protocol). The 8-h testing protocol during the first 24 h was employed in the next group of studies of the effect of 5-20 mg/kg (i.p.) doses of FFA. […] The severity of AGSz remained unaffected in the mice that received 5 (light horizontal line bars; n=9) mg/kg FFA. A significant return of AGSz severity among the FFA treated DBA/1 mice occurred by 24 h. [**p<0.01; #p<0.001 indicate statistically different from controls, Mann-Whitney U test].

DBA/1 mice [2] = assay: AGSz and S-IRA in DBA/1 mice tested for the first time at 16 h after FFA pretreatment
Source text: as §1
FIGS. 4A and 4B illustrate the reduction in the incidence of severe seizures and prevention of S-IRA by FFA pretreatment. In subsequent experiments, AGSz were examined in DBA/1 mice that were treated with 15 mg/kg of FFA i.p. but were initially tested at 16 h. […] [#p<0.001 (Chi-square test] (FIG. 4B). The return of S-IRA susceptibility (94.5%) in the FFA treated mice occurred at 48 h consistent with the previous findings (FIG. 2C).

[3] = Preliminary pharmacokinetic experiments in DBA/1 mice; conditions: 16 h after 15 mg/kg
Experimental: DBA/1 mice show consistent susceptibility to sudden death due to S-IRA immediately following AGSz unless resuscitation is rapidly provided. In the present study FFA exerted a significant dose- and time-dependent blockade of S-IRA and AGSz. […] The significant incidence of selective S-IRA blockade was also seen in the mice that were tested initially at 16 h following 15 mg/kg of FFA (FIG. 4B), further confirming the effectiveness of the drug and the time-course of the effect. […] Furthermore, the dose of 15 mg/kg FFA in adult mouse, based on body surface areas in accordance with Reagan-Shaw and co-workers, translates to the clinically effective range [1.8 mg/kg/day (child) or 1.2 mg/kg/day (adult)] used in patients. The presently disclosed FFA doses are also similar to those in the rodent studies, which established the original usefulness of this drug.

[4] = 15 mg/kg i.p., first tested at 16 h (n=73)

CCNC(C)Cc1cccc(C(F)(F)F)c1 (racemic) [FFA, 3-trifluoromethyl-N-ethylamphetamine]
blocking any AGSz behavior (DBA/1 mice [1]; 5 mg/kg): ineffective | effect against tonic seizures (DBA/1 mice [1]; 5 mg/kg): ineffective | incidence of S-IRA (DBA/1 mice [1]; 5 mg/kg): not affected | severity of AGSz (DBA/1 mice [1]; 5 mg/kg): unaffected | mice with selective blockade of S-IRA among those that showed tonic AGSz (DBA/1 mice [1]; 15 mg/kg, 16 h time point (n=5)): 100% | total incidence of selective S-IRA blockade (DBA/1 mice [1]; 15 mg/kg, during time-course studies): 70% | median AGSz severity scores (DBA/1 mice [1]; 10, 15 and 20 mg/kg i.p., starting at 8 h, vs saline): significant reduction | incidence of S-IRA (DBA/1 mice [1]; 10, 15 and 20 mg/kg, starting at 8 h, vs saline): significant reduction | return of susceptibility to tonic seizures (DBA/1 mice [1]; 10-20 mg/kg): 16 to 48 h | incidence of tonic seizures (DBA/1 mice [1]; 10-20 mg/kg, at 8 h, vs saline): significantly reduced | duration of PID (loss of righting reflex) (DBA/1 mice [1]; 16 h after 15 mg/kg, mice with selective S-IRA blockade, pre-drug 168.6±43.4 s): 34.6 ± 13.3 s | return of AGSz severity (DBA/1 mice [1]; FFA treated mice, 8-h protocol): ≤ 24 h | return of S-IRA susceptibility (DBA/1 mice [1]; FFA treated mice, 8-h protocol): 48 h | overall incidence of S-IRA (DBA/1 mice [2]; [4]): 21.9% | overall incidence of tonic seizures (DBA/1 mice [2]; [4]): 68.5% | incidence of selective S-IRA blockade among mice that continued to display tonic seizures (DBA/1 mice [2]; 15 mg/kg, 16 h (n=50)): 68% | return of S-IRA susceptibility (DBA/1 mice [2]; at 48 h after 15 mg/kg): 94.5% | plasma level of FFA and area under the curve vs levels in Dravet syndrome patients after single oral dose (0.8 mg/kg) [3]: comparable
